Assay results from patent EP4722207A1, “OXOISOINDOLINYL-SUBSTITUTED TETRAHYDROPYRIMIDINEDIONE DERIVATIVE AND USE THEREOF” (Gluetacs Therapeutics (Shanghai) Co., Ltd., priority 2023, dated 2024).

Key:
Format in all cases: cell-based
WEE1 = molecular target: T1, WEE1 (Homo sapiens, UniProt P30291+Q96SW2); assay: Western-blot assay, substrate protein degradation in hPBMCs: WEE1; conditions: for substrate protein remaining % WEE1: 24 hours of compound treatment, 50 nM and 500 nM; for WEE1 substrate protein remaining %: compounds at 50 nM and 500 nM, 24 hours
T1 construct: effects of the compounds of the present disclosure on the expression of target proteins in cells; endogenous in cells; host or cells: human PBMCs (hPBMCs)
T1 sequence (P30291 whole entry): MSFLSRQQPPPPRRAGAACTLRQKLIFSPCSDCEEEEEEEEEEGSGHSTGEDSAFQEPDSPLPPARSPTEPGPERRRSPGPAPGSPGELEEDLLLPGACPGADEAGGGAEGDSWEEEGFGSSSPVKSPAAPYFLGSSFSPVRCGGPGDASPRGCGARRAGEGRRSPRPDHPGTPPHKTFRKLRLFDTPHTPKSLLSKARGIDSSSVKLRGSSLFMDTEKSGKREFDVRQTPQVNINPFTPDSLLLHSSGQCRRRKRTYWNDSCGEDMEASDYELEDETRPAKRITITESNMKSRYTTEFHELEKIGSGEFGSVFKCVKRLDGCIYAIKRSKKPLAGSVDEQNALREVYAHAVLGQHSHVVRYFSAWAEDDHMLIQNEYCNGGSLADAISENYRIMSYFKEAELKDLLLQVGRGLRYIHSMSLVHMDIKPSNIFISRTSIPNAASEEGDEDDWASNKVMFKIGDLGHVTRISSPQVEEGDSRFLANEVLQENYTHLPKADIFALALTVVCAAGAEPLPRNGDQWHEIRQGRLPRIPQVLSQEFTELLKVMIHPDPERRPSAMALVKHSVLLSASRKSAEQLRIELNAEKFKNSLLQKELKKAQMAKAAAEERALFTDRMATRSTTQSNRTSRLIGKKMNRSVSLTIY
T1 sequence (Q96SW2 whole entry): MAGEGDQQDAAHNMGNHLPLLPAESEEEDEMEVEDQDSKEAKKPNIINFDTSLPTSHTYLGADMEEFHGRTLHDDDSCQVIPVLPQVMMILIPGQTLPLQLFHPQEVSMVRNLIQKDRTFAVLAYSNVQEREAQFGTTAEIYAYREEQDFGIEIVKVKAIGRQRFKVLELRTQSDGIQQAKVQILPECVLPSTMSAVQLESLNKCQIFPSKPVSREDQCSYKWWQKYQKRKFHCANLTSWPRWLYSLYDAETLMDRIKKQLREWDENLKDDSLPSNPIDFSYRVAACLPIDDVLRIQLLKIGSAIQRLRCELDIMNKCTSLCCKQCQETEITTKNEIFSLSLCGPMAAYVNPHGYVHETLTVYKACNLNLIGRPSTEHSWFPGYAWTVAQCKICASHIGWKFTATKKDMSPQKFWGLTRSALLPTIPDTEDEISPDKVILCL
T1 sequence (Q16531 whole entry partner): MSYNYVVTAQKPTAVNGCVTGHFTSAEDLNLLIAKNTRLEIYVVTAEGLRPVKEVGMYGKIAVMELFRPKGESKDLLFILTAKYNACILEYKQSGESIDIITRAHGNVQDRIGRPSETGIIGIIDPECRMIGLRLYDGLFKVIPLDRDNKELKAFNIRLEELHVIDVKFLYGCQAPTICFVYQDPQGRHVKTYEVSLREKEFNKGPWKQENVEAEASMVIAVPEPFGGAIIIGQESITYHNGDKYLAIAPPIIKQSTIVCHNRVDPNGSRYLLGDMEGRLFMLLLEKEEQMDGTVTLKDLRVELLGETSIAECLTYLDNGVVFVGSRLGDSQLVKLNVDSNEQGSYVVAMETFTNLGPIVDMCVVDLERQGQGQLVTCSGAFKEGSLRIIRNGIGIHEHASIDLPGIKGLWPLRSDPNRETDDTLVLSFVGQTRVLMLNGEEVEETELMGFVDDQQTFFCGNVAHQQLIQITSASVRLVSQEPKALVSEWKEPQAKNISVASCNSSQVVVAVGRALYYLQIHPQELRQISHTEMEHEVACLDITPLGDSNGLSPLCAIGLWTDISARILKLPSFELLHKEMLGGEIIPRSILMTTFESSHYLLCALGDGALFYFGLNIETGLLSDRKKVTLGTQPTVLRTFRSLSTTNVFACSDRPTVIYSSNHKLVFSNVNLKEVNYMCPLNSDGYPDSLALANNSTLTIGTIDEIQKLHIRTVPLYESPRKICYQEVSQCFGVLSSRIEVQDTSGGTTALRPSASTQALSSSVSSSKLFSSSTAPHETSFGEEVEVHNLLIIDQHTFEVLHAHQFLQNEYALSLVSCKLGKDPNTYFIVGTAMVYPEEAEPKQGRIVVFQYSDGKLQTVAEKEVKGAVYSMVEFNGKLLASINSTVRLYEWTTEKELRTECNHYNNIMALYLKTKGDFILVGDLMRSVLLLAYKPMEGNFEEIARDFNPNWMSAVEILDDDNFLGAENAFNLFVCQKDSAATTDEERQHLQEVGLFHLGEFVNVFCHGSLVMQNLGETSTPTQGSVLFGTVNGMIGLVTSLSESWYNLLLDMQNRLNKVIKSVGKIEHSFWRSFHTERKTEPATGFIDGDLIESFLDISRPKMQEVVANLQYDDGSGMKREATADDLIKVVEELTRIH

GSPT1 = molecular target: T2, GSPT1 (Homo sapiens, UniProt P15170+Q96SW2); assay: Western-blot assay, substrate protein degradation in hPBMCs: GSPT1; conditions: for substrate protein remaining % GSPT1: 24 hours of compound treatment, 50 nM and 500 nM; for GSPT1 substrate protein remaining %: compounds at 50 nM and 500 nM, 24 hours
T2 construct: effects of the compounds of the present disclosure on the expression of target proteins in cells; endogenous in cells; host or cells: human PBMCs (hPBMCs)
T2 sequence (P15170 whole entry): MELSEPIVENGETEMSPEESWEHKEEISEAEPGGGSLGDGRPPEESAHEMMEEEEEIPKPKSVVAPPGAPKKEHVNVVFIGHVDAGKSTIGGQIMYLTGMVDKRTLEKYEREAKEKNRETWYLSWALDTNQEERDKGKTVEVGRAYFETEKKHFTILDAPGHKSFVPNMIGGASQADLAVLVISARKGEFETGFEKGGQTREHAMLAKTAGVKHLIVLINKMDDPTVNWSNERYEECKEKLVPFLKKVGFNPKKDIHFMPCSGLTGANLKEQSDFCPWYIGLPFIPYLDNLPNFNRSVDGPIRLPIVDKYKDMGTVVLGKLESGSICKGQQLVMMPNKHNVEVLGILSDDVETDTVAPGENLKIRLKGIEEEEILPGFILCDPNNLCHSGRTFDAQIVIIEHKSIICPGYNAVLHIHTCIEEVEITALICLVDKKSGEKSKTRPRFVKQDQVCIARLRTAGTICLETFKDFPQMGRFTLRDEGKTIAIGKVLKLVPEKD
T2 sequence (Q96SW2 whole entry): as the sequence (Q96SW2 whole entry) above
T2 sequence (Q16531 whole entry partner): as the sequence (Q16531 whole entry partner) above

IKZF2 = molecular target: T3, IKZF2 (Homo sapiens, UniProt Q96SW2+Q9UKS7); assay: Western-blot assay, substrate protein degradation in hPBMCs: IKZF2; conditions: for substrate protein remaining % IKZF2: 24 hours of compound treatment, 50 nM and 500 nM; for IKZF2 substrate protein remaining %: compounds at 50 nM and 500 nM, 24 hours
T3 construct: effects of the compounds of the present disclosure on the expression of target proteins in cells; endogenous in cells; host or cells: human PBMCs (hPBMCs)
T3 sequence (Q9UKS7 whole entry): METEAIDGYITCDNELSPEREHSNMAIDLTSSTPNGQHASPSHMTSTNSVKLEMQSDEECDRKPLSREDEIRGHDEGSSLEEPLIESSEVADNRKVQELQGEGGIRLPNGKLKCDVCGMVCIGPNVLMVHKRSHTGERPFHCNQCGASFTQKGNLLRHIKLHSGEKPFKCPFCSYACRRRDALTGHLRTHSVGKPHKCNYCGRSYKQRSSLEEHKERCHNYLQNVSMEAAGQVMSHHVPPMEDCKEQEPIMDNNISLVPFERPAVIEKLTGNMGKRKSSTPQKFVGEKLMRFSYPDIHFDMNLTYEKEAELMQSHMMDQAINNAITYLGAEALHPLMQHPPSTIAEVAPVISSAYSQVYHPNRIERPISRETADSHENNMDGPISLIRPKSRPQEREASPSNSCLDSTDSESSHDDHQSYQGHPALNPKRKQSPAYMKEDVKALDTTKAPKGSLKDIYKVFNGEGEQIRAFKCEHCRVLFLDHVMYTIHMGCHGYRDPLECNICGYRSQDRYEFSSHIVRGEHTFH
T3 sequence (Q96SW2 whole entry): as the sequence (Q96SW2 whole entry) above
T3 sequence (Q16531 whole entry partner): as the sequence (Q16531 whole entry partner) above

IKZF1 = molecular target: T4, IKZF1 (Homo sapiens, UniProt Q13422+Q96SW2); assay: Western-blot assay, substrate protein degradation in hPBMCs: IKZF1; conditions: for substrate protein remaining % IKZF1: 24 hours of compound treatment, 50 nM and 500 nM; for IKZF1 substrate protein remaining %: compounds at 50 nM and 500 nM, 24 hours
T4 construct: effects of the compounds of the present disclosure on the expression of target proteins in cells; endogenous in cells; host or cells: human PBMCs (hPBMCs)
T4 sequence (Q13422 whole entry): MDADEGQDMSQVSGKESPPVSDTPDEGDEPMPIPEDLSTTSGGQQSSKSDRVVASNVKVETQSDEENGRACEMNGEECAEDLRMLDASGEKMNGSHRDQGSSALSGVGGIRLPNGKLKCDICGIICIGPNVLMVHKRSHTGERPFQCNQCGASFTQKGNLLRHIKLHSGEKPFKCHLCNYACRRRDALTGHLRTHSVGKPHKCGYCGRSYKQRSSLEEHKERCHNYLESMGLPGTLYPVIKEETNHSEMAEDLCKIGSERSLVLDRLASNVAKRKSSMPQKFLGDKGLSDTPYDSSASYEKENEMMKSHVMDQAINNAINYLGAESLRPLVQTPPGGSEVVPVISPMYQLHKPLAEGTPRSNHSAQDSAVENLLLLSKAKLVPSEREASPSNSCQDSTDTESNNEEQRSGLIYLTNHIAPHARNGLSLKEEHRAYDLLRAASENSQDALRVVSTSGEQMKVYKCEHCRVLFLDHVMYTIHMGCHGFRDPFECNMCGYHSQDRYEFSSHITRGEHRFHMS
T4 sequence (Q96SW2 whole entry): as the sequence (Q96SW2 whole entry) above
T4 sequence (Q16531 whole entry partner): as the sequence (Q16531 whole entry partner) above

IKZF3 = molecular target: T5, IKZF3 (Homo sapiens, UniProt Q96SW2+Q9UKT9); assay: Western-blot assay, substrate protein degradation in hPBMCs: IKZF3; conditions: for substrate protein remaining % IKZF3: 24 hours of compound treatment, 50 nM and 500 nM; for IKZF3 substrate protein remaining %: compounds at 50 nM and 500 nM, 24 hours
T5 construct: effects of the compounds of the present disclosure on the expression of target proteins in cells; endogenous in cells; host or cells: human PBMCs (hPBMCs)

CK1α = molecular target: T6, CK1α (Homo sapiens, UniProt P48729+Q96SW2); assay: Western-blot assay, substrate protein degradation in hPBMCs: CK1α; conditions: for substrate protein remaining % CK1α: 24 hours of compound treatment, 50 nM and 500 nM; for CK1α substrate protein remaining %: compounds at 50 nM and 500 nM, 24 hours
T6 construct: effects of the compounds of the present disclosure on the expression of target proteins in cells; endogenous in cells; host or cells: human PBMCs (hPBMCs)
T6 sequence (P48729 whole entry): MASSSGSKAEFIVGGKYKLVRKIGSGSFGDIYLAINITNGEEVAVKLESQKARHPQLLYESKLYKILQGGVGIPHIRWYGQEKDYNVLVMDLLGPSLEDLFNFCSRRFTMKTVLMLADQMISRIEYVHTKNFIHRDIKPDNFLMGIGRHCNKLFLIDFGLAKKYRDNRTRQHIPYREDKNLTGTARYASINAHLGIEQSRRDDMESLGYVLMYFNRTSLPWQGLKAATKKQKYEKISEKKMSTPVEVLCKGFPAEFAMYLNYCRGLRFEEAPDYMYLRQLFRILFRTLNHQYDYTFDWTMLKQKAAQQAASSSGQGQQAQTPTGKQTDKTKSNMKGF
T6 sequence (Q96SW2 whole entry): as the sequence (Q96SW2 whole entry) above
T6 sequence (Q16531 whole entry partner): as the sequence (Q16531 whole entry partner) above

Compound | substrate protein remaining % WEE1 (WEE1) | WEE1 substrate protein remaining % (WEE1) | substrate protein remaining % GSPT1 (GSPT1) | GSPT1 substrate protein remaining % (GSPT1) | substrate protein remaining % IKZF2 (IKZF2) | IKZF2 substrate protein remaining % (IKZF2) | substrate protein remaining % IKZF1 (IKZF1) | IKZF1 substrate protein remaining % (IKZF1) | substrate protein remaining % IKZF3 (IKZF3) | IKZF3 substrate protein remaining % (IKZF3) | substrate protein remaining % CK1α (CK1α) | CK1α substrate protein remaining % (CK1α)
O=C1CCN(N2Cc3cc(CN4CCN(c5cccnc5)CC4)ccc3C2=O)C(=O)N1 [GT-05434, 1-(1-oxo-5-((4-(pyridin-3-yl)piperazin-1-yl)methyl)isoindolin-2-yl)dihydropyrimidine-2,4(1H,3H)-dione] | A (0% ≤ substrate protein remaining % ≤ 80%) | A ("A" is defined as 0% ≤ substrate protein remaining % ≤ 80%) | A (0% ≤ substrate protein remaining % ≤ 80%) | A ("A" is defined as 0% ≤ substrate protein remaining % ≤ 80%) | A (0% ≤ substrate protein remaining % ≤ 80%) | B ("B" is defined as 80%< substrate protein remaining %≤ 100%) | B (80%< substrate protein remaining %≤ 100%) | B ("B" is defined as 80%< substrate protein remaining %≤ 100%) | B (80%< substrate protein remaining %≤ 100%) | B ("B" is defined as 80%< substrate protein remaining %≤ 100%) | A (0% ≤ substrate protein remaining % ≤ 80%) | B ("B" is defined as 80%< substrate protein remaining %≤ 100%)
O=C1CCN(N2Cc3cc(CN4CC5CCC(C4)N5C(c4ccccc4)c4ccccc4)ccc3C2=O)C(=O)N1 [GT-06452, 1-(5-((8-benzhydryl-3,8-diazabicyclo[3.2.1]octan-3-yl)methyl)-1-oxoisoindolin-2-yl)dihydropyrimidine-2,4(1H,3H)-dione] |  | A ("A" is defined as 0% ≤ substrate protein remaining % ≤ 80%) |  | B ("B" is defined as 80%< substrate protein remaining %≤ 100%) |  | B ("B" is defined as 80%< substrate protein remaining %≤ 100%) |  | B ("B" is defined as 80%< substrate protein remaining %≤ 100%) |  | B ("B" is defined as 80%< substrate protein remaining %≤ 100%) |  | B ("B" is defined as 80%< substrate protein remaining %≤ 100%)
O=C1CCN(N2C(=O)c3ccc(CN4CCN(c5ncncn5)CC4)cc3C2=O)C(=O)N1 [GT-07037, 5-((4-(1,3,5-triazin-2-yl)piperazin-1-yl)methyl)-2-(2,4-dioxotetrahydropyrimidin-1(2H)-yl)isoindoline-1,3-dione] |  | B ("B" is defined as 80%< substrate protein remaining %≤ 100%) |  | A ("A" is defined as 0% ≤ substrate protein remaining % ≤ 80%) |  | B ("B" is defined as 80%< substrate protein remaining %≤ 100%) |  | B ("B" is defined as 80%< substrate protein remaining %≤ 100%) |  | B ("B" is defined as 80%< substrate protein remaining %≤ 100%) |  | B ("B" is defined as 80%< substrate protein remaining %≤ 100%)
O=C1CCN(N2Cc3cc(CN4CCN(c5nccc(I)c5F)CC4)ccc3C2=O)C(=O)N1 [GT-05406, 1-(5-((4-(3-fluoro-4-iodopyridin-2-yl)piperazin-1-yl)methyl)-1-oxoisoindolin-2-yl)dihydropyrimidine-2,4(1H,3H)-dione] | B (80%< substrate protein remaining %≤ 100%) | A ("A" is defined as 0% ≤ substrate protein remaining % ≤ 80%) | A (0% ≤ substrate protein remaining % ≤ 80%) | A ("A" is defined as 0% ≤ substrate protein remaining % ≤ 80%) | B (80%< substrate protein remaining %≤ 100%) | A ("A" is defined as 0% ≤ substrate protein remaining % ≤ 80%) | B (80%< substrate protein remaining %≤ 100%) | B ("B" is defined as 80%< substrate protein remaining %≤ 100%) | B (80%< substrate protein remaining %≤ 100%) | B ("B" is defined as 80%< substrate protein remaining %≤ 100%) | B (80%< substrate protein remaining %≤ 100%) | B ("B" is defined as 80%< substrate protein remaining %≤ 100%)
O=C1CCN(N2C(=O)c3ccc(CN4CCN(c5ncnc(Cl)c5Cl)CC4)cc3C2=O)C(=O)N1 [GT-07034, 5-((4-(5,6-dichloropyrimidin-4-yl)piperazin-1-yl)methyl)-2-(2,4-dioxotetrahydropyrimidin-1(2H)-yl)isoindoline-1,3-dione] |  | A ("A" is defined as 0% ≤ substrate protein remaining % ≤ 80%) |  | A ("A" is defined as 0% ≤ substrate protein remaining % ≤ 80%) |  | A ("A" is defined as 0% ≤ substrate protein remaining % ≤ 80%) |  | A ("A" is defined as 0% ≤ substrate protein remaining % ≤ 80%) |  | A ("A" is defined as 0% ≤ substrate protein remaining % ≤ 80%) |  | A ("A" is defined as 0% ≤ substrate protein remaining % ≤ 80%)
O=C1CCN(N2C(=O)c3ccc(CN4CCN(c5ccc(Cl)nc5)CC4)cc3C2=O)C(=O)N1 [GT-07027, 5-((4-(6-chloropyridin-3-yl)piperazin-1-yl)methyl)-2-(2,4-dioxotetrahydropyrimidin-1(2H)-yl)isoindoline-1,3-dione] |  | A ("A" is defined as 0% ≤ substrate protein remaining % ≤ 80%) |  | A ("A" is defined as 0% ≤ substrate protein remaining % ≤ 80%) |  | B ("B" is defined as 80%< substrate protein remaining %≤ 100%) |  | B ("B" is defined as 80%< substrate protein remaining %≤ 100%) |  | B ("B" is defined as 80%< substrate protein remaining %≤ 100%) |  | B ("B" is defined as 80%< substrate protein remaining %≤ 100%)
O=C1CCN(N2Cc3cc(CN4CCC(=C5CCOc6cc(F)ccc65)CC4)ccc3C2=O)C(=O)N1 [GT-07588, 1-(5-((4-(7-fluorochroman-4-ylidene)piperidin-1-yl)methyl)-1-oxoisoindolin-2-yl)dihydropyrimidine-2,4(1H,3H)-dione] | B (80%< substrate protein remaining %≤ 100%) |  | A (0% ≤ substrate protein remaining % ≤ 80%) |  | B (80%< substrate protein remaining %≤ 100%) |  | B (80%< substrate protein remaining %≤ 100%) |  | B (80%< substrate protein remaining %≤ 100%) |  | B (80%< substrate protein remaining %≤ 100%) | 
CC1(C)CCC(CN2C3CC2CN(Cc2ccc4c(c2)C(=O)N(N2CCC(=O)NC2=O)C4=O)C3)=C(c2ccc(Cl)cc2)C1 [GT-06459, 5-((6-((4'-chloro-5,5-dimethyl-3,4,5,6-tetrahydro-[1,1'-biphenyl]-2-yl)methyl)-3,6-diazabicyclo[3.1.1]heptan-3-yl)methyl)-2-(2,4-dioxotetrahydropyrimidin-1(2H)-yl)isoindoline-1,3-dione] |  | A ("A" is defined as 0% ≤ substrate protein remaining % ≤ 80%) |  | A ("A" is defined as 0% ≤ substrate protein remaining % ≤ 80%) |  | A ("A" is defined as 0% ≤ substrate protein remaining % ≤ 80%) |  | A ("A" is defined as 0% ≤ substrate protein remaining % ≤ 80%) |  | A ("A" is defined as 0% ≤ substrate protein remaining % ≤ 80%) |  | A ("A" is defined as 0% ≤ substrate protein remaining % ≤ 80%)
Cc1ccsc1C1CCN(Cc2ccc3c(c2)C(=O)N(N2CCC(=O)NC2=O)C3=O)CC1 [GT-07306, 2-(2,4-dioxotetrahydropyrimidin-1(2H)-yl)-5-((4-(3-methylthiophen-2-yl)piperidin-1-yl)methyl)isoindoline-1,3-dione] | B (80%< substrate protein remaining %≤ 100%) |  | A (0% ≤ substrate protein remaining % ≤ 80%) |  | B (80%< substrate protein remaining %≤ 100%) |  | B (80%< substrate protein remaining %≤ 100%) |  | A (0% ≤ substrate protein remaining % ≤ 80%) |  | B (80%< substrate protein remaining %≤ 100%) | 
O=C1CCN(N2C(=O)c3ccc(CN4CCN(c5cccc(F)c5F)CC4)cc3C2=O)C(=O)N1 [GT-06793, 5-((4-(2,3-difluorophenyl)piperazin-1-yl)methyl)-2-(2,4-dioxotetrahydropyrimidin-1(2H)-yl)isoindoline-1,3-dione] |  | B ("B" is defined as 80%< substrate protein remaining %≤ 100%) |  | B ("B" is defined as 80%< substrate protein remaining %≤ 100%) |  | A ("A" is defined as 0% ≤ substrate protein remaining % ≤ 80%) |  | B ("B" is defined as 80%< substrate protein remaining %≤ 100%) |  | B ("B" is defined as 80%< substrate protein remaining %≤ 100%) |  | B ("B" is defined as 80%< substrate protein remaining %≤ 100%)
